Reference: patent US9062046B2, “Substituted imidazoquinoline derivatives as kinase inhibitors” (Piramal Enterprises Limited, priority 2011, dated 2015)

What was measured:
[1] = tested on: A2780 (ovarian cell line); test: Cytotoxicity assay (propidium iodide assay), A2780; format: cell-based; details: Homo sapiens, A2780 cells, 48 h treatment
Protocol: (§1) The assay was designed as in the reference, Anticancer Drugs, 2002, 13, 1-8, the disclosure of which is incorporated by reference for the teaching of the assay.
(§2) Cells from cell lines A2780 (ovarian cell line) and PC3 (prostate cell line) (both from ATCC) were seeded at a density of 3000 cells/well in a white opaque 96-well plate. Following incubation at 37° C./5% CO2 for a period of 18-24 h, the cells were treated with various concentrations (stock solution was prepared in DMSO and subsequent dilutions were made in media as per ATCC guidelines) of the test compounds for a period of 48 h. At the end of treatment, the culture medium was discarded, the cells were washed with 1×PBS and 200 μl of 7 μg/ml propidium iodide was added to each well. The plates were frozen at −70° C. overnight. For analysis, the plates were warmed to RT, allowed to thaw and were read in PoleStar fluorimeter with the fluorescence setting. The percentage of viable cells in the non-treated set of wells was considered to be 100 and the percentage viability following treatment was calculated accordingly. IC50 values were calculated from graphs plotted using these percentages.

[2] = tested on: PC3 (prostate cell line); test: Cytotoxicity assay (propidium iodide assay), PC3; format: cell-based; details: Homo sapiens, PC-3, PC3 cells, 48 h treatment
Protocol: as §1, §2

SMILES | IC50 [1] | IC50 [2] | inhibition at 1 µM [1] | inhibition at 1 µM [2]
COc1ccc(-n2c(=NC#N)n(C)c3cnc4ccc(-c5cnc(N)c(C(F)(F)F)c5)cc4c32)cn1 [Example 1, N-(8-(6-amino-5-(trifluoromethyl)pyridin-3-yl)-1-(6-methoxypyridin-3-yl)-3-methyl-1H-imidazo[4,5-c]quinolin-2(3H)-ylidene)cyanamide] | ≤ 0.5 µM | ≤ 0.5 µM | – | –
COc1ccc(-n2c(=NC#N)n(C)c3cnc4ccc(-c5ccc(N(C)C)nc5)cc4c32)cn1 [Example 2, N-(8-(6-(dimethylamino)pyridin-3-yl)-1-(6-methoxypyridin-3-yl)-3-methyl-1H-imidazo[4,5-c]quinolin-2(3H)-ylidene)cyanamide] | ≤ 0.5 µM | ≤ 0.5 µM | – | –
COc1ccc(-n2c(=NC#N)n(C)c3cnc4ccc(-c5cnc6ccccc6c5)cc4c32)cn1 [Example 3, N-(1-(6-methoxypyridin-3-yl)-3-methyl-8-(quinolin-3-yl)-1H-imidazo[4,5-c]quinolin-2(3H)-ylidene)cyanamide] | ≤ 0.5 µM | ≤ 0.5 µM | – | –
COc1ccc(-n2c(=NC#N)n(C)c3cnc4ccc(-c5cnc(N)c(C(F)(F)F)c5)cc4c32)c(Cl)n1 [Example 4, N-(8-(6-amino-5-(trifluoromethyl)pyridin-3-yl)-1-(2-chloro-6-methoxypyridin-3-yl)-3-methyl-1H-imidazo[4,5-c]quinolin-2(3H)-ylidene)cyanamide] | ≤ 0.5 µM | ≤ 0.5 µM | – | –
Cn1c(=NC#N)n(-c2ccc(C(C)(C)C#N)cc2)c2c3cc(-c4cnc(N)c(C(F)(F)F)c4)ccc3ncc21 [Example 6, N-(8-(6-amino-5-(trifluoromethyl)pyridin-3-yl)-1-(4-(2-cyanopropan-2-yl)phenyl)-3-methyl-1H-imidazo[4,5-c]quinolin-2(3H)-ylidene)cyanamide] | ≤ 0.5 µM | ≤ 0.5 µM | – | –
Cn1c(=NC#N)n(-c2ccc(C(C)(C)C#N)cc2)c2c3cc(-c4cnc5ccccc5c4)ccc3ncc21 [Example 7, N-(1-(4-(2-cyanopropan-2-yl)phenyl)-3-methyl-8-(quinolin-3-yl)-1H-imidazo[4,5-c]quinolin-2(3H)-ylidene)cyanamide] | ≤ 0.5 µM | ≤ 0.5 µM | – | –
COc1ccc(-n2c(=NC#N)n(C)c3cnc4ccc(-c5cnc(N)c(C(F)(F)F)c5)cc4c32)c(C)n1 [Example 9, N-(8-(6-amino-5-(trifluoromethyl)pyridin-3-yl)-1-(6-methoxy-2-methylpyridin-3-yl)-3-methyl-1H-imidazo[4,5-c]quinolin-2(3H)-ylidene)cyanamide] | ≤ 0.5 µM | ≤ 0.5 µM | – | –
Cn1c(=NC#N)n(-c2ccc(C#N)nc2)c2c3cc(-c4cnc(N)c(C(F)(F)F)c4)ccc3ncc21 [Example 10, N-(8-(6-amino-5-(trifluoromethyl)pyridin-3-yl)-1-(6-cyanopyridin-3-yl)-3-methyl-1H-imidazo[4,5-c]quinolin-2(3H)-ylidene)cyanamide] | ≤ 0.5 µM | ≤ 0.5 µM | – | –
Cn1c(=NC#N)n(-c2ccc3ncccc3c2)c2c3cc(-c4cnc(N)c(C(F)(F)F)c4)ccc3ncc21 [Example 11, N-(8-(6-amino-5-(trifluoromethyl)pyridin-3-yl)-3-methyl-1-(quinolin-6-yl)-1H-imidazo[4,5-c]quinolin-2(3H)-ylidene)cyanamide] | ≤ 0.5 µM | ≤ 0.5 µM | – | –
CNc1ncc(-c2ccc3ncc4c(c3c2)n(-c2ccc(C(C)(C)C#N)cc2)c(=NC#N)n4C)cc1C(F)(F)F [Example 12, N-(1-(4-(2-cyanopropan-2-yl)phenyl)-3-methyl-8-(6-(methylamino)-5-(trifluoromethyl)pyridin-3-yl)-1H-imidazo[4,5-c]quinolin-2(3H)-ylidene)cyanamide] | ≤ 0.5 µM | ≤ 0.5 µM | – | –
COc1ccc(-n2c(=NC#N)n(C)c3cnc4ccc(-c5cnc(OC)c(N)c5)cc4c32)c(OC)c1 [Example 13, N-(8-(5-amino-6-methoxypyridin-3-yl)-1-(2,4-dimethoxyphenyl)-3-methyl-1H-imidazo[4,5-c]quinolin-2(3H)-ylidene)cyanamide] | – | – | ≥ 70% | ≥ 70%
COc1ccc(-n2c(=NC#N)n(C)c3cnc4ccc(-c5ccncc5)cc4c32)cn1 [Example 14, N-(1-(6-methoxypyridin-3-yl)-3-methyl-8-(pyridin-4-yl)-1H-imidazo[4,5-c]quinolin-2(3H)-ylidene)cyanamide] | – | – | ≥ 70% | 30 to 70%
COc1ccc(-n2c(=NC#N)n(C)c3cnc4ccc(-c5cncc(C(F)(F)F)c5)cc4c32)cn1 [Example 25, N-(1-(6-methoxypyridin-3-yl)-3-methyl-8-(5-(trifluoromethyl)pyridin-3-yl)-1H-imidazo[4,5-c]quinolin-2(3H)-ylidene)cyanamide] | – | – | ≥ 70% | 30 to 70%
COc1ccc(-n2c(=NC#N)n(C)c3cnc4ccc(-c5ccc6cccnc6c5)cc4c32)cn1 [Example 26, N-(1-(6-methoxypyridin-3-yl)-3-methyl-8-(quinolin-7-yl)-1H-imidazo[4,5-c]quinolin-2(3H)-ylidene)cyanamide] | – | – | ≥ 70% | 30 to 70%
COc1ccc(-n2c(=NC#N)n(C)c3cnc4ccc(-c5ccccc5OC(C)C)cc4c32)cn1 [Example 27, N-(8-(2-isopropoxyphenyl)-1-(6-methoxypyridin-3-yl)-3-methyl-1H-imidazo[4,5-c]quinolin-2(3H)-ylidene)cyanamide] | – | – | < 30% | < 30%
COc1ccc(-n2c(=NC#N)n(C)c3cnc4ccc(-c5cccc(Cl)c5)cc4c32)cn1 [Example 28, N-(8-(3-chlorophenyl)-1-(6-methoxypyridin-3-yl)-3-methyl-1H-imidazo[4,5-c]quinolin-2(3H)-ylidene)cyanamide] | – | – | 30 to 70% | < 30%
COc1ccc(-n2c(=NC#N)n(C)c3cnc4ccc(-c5cccc(C)c5)cc4c32)cn1 [Example 29, N-(1-(6-methoxypyridin-3-yl)-3-methyl-8-m-tolyl-1H-imidazo[4,5-c]quinolin-2(3H)-ylidene)cyanamide] | – | – | 30 to 70% | < 30%
COc1ccc(-n2c(=NC#N)n(C)c3cnc4ccc(-c5ccc(C#N)cc5)cc4c32)cn1 [Example 30, N-(8-(4-cyanophenyl)-1-(6-methoxypyridin-3-yl)-3-methyl-1H-imidazo[4,5-c]quinolin-2(3H)-ylidene)cyanamide] | – | – | < 30% | < 30%
COc1ccc(-n2c(=NC#N)n(C)c3cnc4ccc(-c5ccccc5C)cc4c32)cn1 [Example 34, N-(1-(6-methoxypyridin-3-yl)-3-methyl-8-o-tolyl-1H-imidazo[4,5-c]quinolin-2(3H)-ylidene)cyanamide] | – | – | < 30% | < 30%
COc1ccc(-n2c(=NC#N)n(C)c3cnc4ccc(-c5cncc6ccccc56)cc4c32)cn1 [Example 35, N-(8-(isoquinolin-4-yl)-1-(6-methoxypyridin-3-yl)-3-methyl-1H-imidazo[4,5-c]quinolin-2(3H)-ylidene)cyanamide] | – | – | ≥ 70% | 30 to 70%
COc1ccc(-n2c(=NC#N)n(C)c3cnc4ccc(-c5ccc(OC)c(OC)c5)cc4c32)cn1 [Example 36, N-(8-(3,4-dimethoxyphenyl)-1-(6-methoxypyridin-3-yl)-3-methyl-1H-imidazo[4,5-c]quinolin-2(3H)-ylidene)cyanamide] | – | – | ≥ 70% | ≥ 70%
COc1ccc(-n2c(=NC#N)n(C)c3cnc4ccc(-c5ccc(SC(C)C)cc5)cc4c32)cn1 [Example 37, N-(8-(4-(isopropylthio)phenyl)-1-(6-methoxypyridin-3-yl)-3-methyl-1H-imidazo[4,5-c]quinolin-2(3H)-ylidene)cyanamide] | – | – | 30 to 70% | < 30%
COc1ccc(-n2c(=NC#N)n(C)c3cnc4ccc(-c5cccc(O)c5)cc4c32)cn1 [Example 38, N-(8-(3-hydroxyphenyl)-1-(6-methoxypyridin-3-yl)-3-methyl-1H-imidazo[4,5-c]quinolin-2(3H)-ylidene)cyanamide] | – | – | ≥ 70% | 30 to 70%
COc1ccc(-n2c(=NC#N)n(C)c3cnc4ccc(-c5cnccc5F)cc4c32)cn1 [Example 39, N-(8-(4-fluoropyridin-3-yl)-1-(6-methoxypyridin-3-yl)-3-methyl-1H-imidazo[4,5-c]quinolin-2(3H)-ylidene)cyanamide] | – | – | 30 to 70% | 30 to 70%
COc1ccc(-n2c(=NC#N)n(C)c3cnc4ccc(-c5cccc(F)c5)cc4c32)cn1 [Example 40, N-(8-(3-fluorophenyl)-1-(6-methoxypyridin-3-yl)-3-methyl-1H-imidazo[4,5-c]quinolin-2(3H)-ylidene)cyanamide] | – | – | 30 to 70% | < 30%
COc1ccc(-n2c(=NC#N)n(C)c3cnc4ccc(-c5cccc(C(F)(F)F)c5)cc4c32)cn1 [Example 41, N-(1-(6-methoxypyridin-3-yl)-3-methyl-8-(3-(trifluoromethyl)phenyl)-1H-imidazo[4,5-c]quinolin-2(3H)-ylidene)cyanamide] | – | – | 30 to 70% | 30 to 70%
COc1ccc(-n2c(=NC#N)n(C)c3cnc4ccc(-c5ccc(C)cc5)cc4c32)cn1 [Example 44, N-(1-(6-methoxypyridin-3-yl)-3-methyl-8-p-tolyl-1H-imidazo[4,5-c]quinolin-2(3H)-ylidene)cyanamide] | – | – | 30 to 70% | < 30%
